The test system of experiment [1] is serum calcium concentration.
Procedure: Rats were divided into four groups of seven animals, and each group was assigned at random to a dose of standard or test solution. Low and high doses were chosen from the linear portion of the dose-response curve. For the salmon calcitonin standard, the values were 0.7 and 2.1 mcg. peptide/100 g. body weight (BW). This dose approximates 3 and 9 MU/100 g. BW. Peptides were given by subcutaneous injection (0.2 ml/100 g. BW) and blood was withdrawn 1 hour later for serum calcium determination. Sera are processed and analyzed within two hours of collection.
The conditions of experiment [2]: literature values; cited from earlier work.

The values that follow come from patent US4605515A, “Calcitonin-(1-23)-peptide amide” (Armour Pharmaceutical Company, priority 1984, dated 1986).

Bridge positions count the residues as written; N and C are the ends. Ends that are not written are not given here. Peptide text beside a SMILES is read from it.

Regarding `CC(C)C[C@H](NC(=O)[C@H](CCCCN)NC(=O)CNC(=O)[C@H](CC(C)C)NC(=O)[C@@H](NC(=O)[C@@H]1CSSC[C@H](N)C(=O)N[C@@H](CO)C(=O)N[C@@H](CC(N)=O)C(=O)N[C@@H](CC(C)C)C(=O)N[C@@H](CO)C(=O)N[C@@H]([C@@H](C)O)C(=O)N1)C(C)C)C(=O)N[C@@H](CO)C(=O)N[C@@H](CCC(N)=O)C(=O)N[C@@H](CCC(=O)O)C(=O)N[C@@H](CC(C)C)C(=O)N[C@@H](Cc1c[nH]cn1)C(=O)N[C@@H](CCCCN)C(=O)N[C@@H](CC(C)C)C(=O)N[C@@H](CCC(N)=O)C(=O)N[C@H](C(=O)N[C@@H](Cc1ccc(O)cc1)C(=O)N1CCC[C@H]1C(N)=O)[C@@H](C)O` [calcitonin-(1-23)-peptide amide, Calcitonin-(1-23)-peptide amide] (H-CSNLSTCVLGKLSQELHKLQTYP-NH2; disulfide 1-7), the biological potency in experiment [1] (rat, in vivo, sc) is given as 11.5 IU/mg.

With `CC(C)C[C@H](NC(=O)[C@H](CCCCN)NC(=O)CNC(=O)[C@H](CC(C)C)NC(=O)[C@@H](NC(=O)[C@@H]1CSSC[C@H](N)C(=O)N[C@@H](CO)C(=O)N[C@@H](CC(N)=O)C(=O)N[C@@H](CC(C)C)C(=O)N[C@@H](CO)C(=O)N[C@@H]([C@@H](C)O)C(=O)N1)C(C)C)C(=O)N[C@@H](CO)C(=O)N[C@@H](CCC(N)=O)C(=O)N[C@@H](CCC(=O)O)C(=O)N[C@@H](CC(C)C)C(=O)N[C@@H](Cc1c[nH]cn1)C(=O)N[C@@H](CCCCN)C(=O)N[C@@H](CC(C)C)C(=O)N[C@@H](CCC(N)=O)C(=O)N[C@H](C(=O)N[C@@H](Cc1ccc(O)cc1)C(=O)N1CCC[C@H]1C(=O)N[C@@H](CCCNC(=N)N)C(=O)N[C@H](C(=O)N[C@@H](CC(N)=O)C(=O)N[C@H](C(=O)NCC(=O)N[C@@H](CO)C(=O)NCC(=O)N[C@H](C(=O)N1CCC[C@H]1C(N)=O)[C@@H](C)O)[C@@H](C)O)[C@@H](C)O)[C@@H](C)O` [standard salmon calcitonin, Salmon calcitonin], the “potency of the standard, independently determined” value in experiment [1] (standard salmon calcitonin used, independently determined) is given as “greater than 4,000 IU/mg”.

On to “(1,7-α-L-aminosuberic acid) eel calcitonin”, for which the hypocalcemic potency entry in experiment [2] was “about 3400 Iu/mg”.

For “eel calcitonin (CSNLSTCVLGKLSQELHKLQTYPRTDVGAGTP-NH2; disulfide 1-7; ends not checked; UniProt P01262 1-32, looked up) [synthetic eel calcitonin, synthetic eel calcitonin of Monikawa et al]”, in experiment [2], the hypocalcemic potency entry is on record as “around 4300 Iu/mg”.
